Read-outs that look alike come from different tables or passages of the source.
Columns and labels:
[1] = system: chiens anesthésiés; assay: Femoral vasodilator action by intravenous infusion in anaesthetised dogs; assay type: in vivo, chien
Protocol: Deux chiens (poids moyen 12,4 kg) anesthésiés au pento- barbital reçoivent le CRL 41 080 par voie intraveineuse, en perfusion de 6 min, aux doses successives de 2 fois 1 mg/kg, puis 2 et 4 mg/kg toutes les 60 min. Pour comparaison, ces animaux reçoivent en fin d'essai une perfusion de 6 mg/kg I.V. d'un produit de référence connu, le LL 1656 précité.

[2] = Acute toxicity, DL-50 I.V. in male mice; conditions: mouse, in vivo, iv, lots de 10 souris mâles
From the text: (§1) Le tableau I concerne la toxicité chez la souris mâle, d'une part, et la dose minimale induisant chez le chien anesthésié une action vasodilatatrice fémorale nette, d'autre part. La DL-50 I.V. a été déterminée sur des lots de 10 souris mâles; la dose minimale vasodilatatrice a été déterminée sur un lot de 5 chiens servant de témoins par rapport à eux-mêmes et recevant chaque dose de produit à tester toutes les 2,5 heures.

[3] = system: homme; assay: Clinical trials in man; assay type: in vivo; conditions: voie orale (trois gélules par jour de 100 mg) et voie injectable (I.V. ou I.M., une ampoule par jour de 40 mg)
[4] = system: chien anesthésié; assay: Cardiovascular properties in the anaesthetised dog, I.V. (arterial pressures, heart rate, femoral arterial flow); assay type: in vivo
From the text: Le tableau II concerne les variations des pressions […]. systolique, diastolique, […]équence cardiaque et du débit artériel fémoral.

[5] = system: chien anesthésié; assay: Minimal dose inducing a clear femoral vasodilator action in the anaesthetised dog; assay type: in vivo; conditions: Canis lupus familiaris, lot de 5 chiens
From the text: as §1

[6] = system: chiens; assay: Duration of the vasodilator action, repeated intraduodenal administration in dogs; assay type: in vivo, chien
Protocol: Trois chiens (poids moyen 11,1 kg) reçoivent le CRL 41 080 par voie intraduodénale à la dose de 5 mg/kg à deux reprises (délai entre les deux administrations : 90 min) puis 6 mg/kg I.D. de LL 1656 et, 2 heures plus tard, une nouvelle administration de 5 mg/kg I.D. de CRL 41 080.

[7] = Antispasmodic properties (no method described)
[8] = system: chiens anesthésiés; assay: Vasodilator action by intraduodenal route in anaesthetised dogs; assay type: in vivo, chien; conditions: voie intraduodénale
From the text: On mesure la pression artérielle, la fréquence cardiaque, le débit artériel fémoral, le débit artériel vertébral, les températures rectale et cutanée.

[9] = Solubility in water (observation on the isolated product); assay type: physicochemical; conditions: poudre blanche
Protocol: On fait passer entre -5°C et 0°C pendant 2,5 h un courant d'acide chlorhydrique sec au sein d'une solution de 16,8 g (0,10 mole) de 1,3,5-triméthoxybenzène et de 16,6 g (0,10 mole) de 4-hexaméthylèneimino-butyronitrile en solution dans 115 ml de chlorobenzène anhydre. On abandonne la suspension au froid entre 0°C et +4°C une nuit et on extrait le milieu réactionnel par de l'eau. On porte la phase aqueuse au reflux pendant 1 h, on alcalinise par de la soude concentrée et on extrait le précipité par de l'éther diéthylique pour donner 29,8 g d'une huile jaune pale. Cette huile est traitée dans l'éther diéthylique par de l'éthanol chlorhydrique. […] Finst (^Kofler) = 150°C.

[10] = I.V., perfusion de 6 min, 2 fois 1 mg/kg puis 2 et 4 mg/kg, deux chiens
[11] = intraduodenal, par voie I.D., '-(d)' = pas d'action vasodilatatrice par voie I.D., read-out: dose minimale induisant chez le chien anesthésié une action vasodilatatrice fémorale par voie I.D.
[12] = iv, par voie I.V., read-out: dose minimale induisant chez le chien anesthésié une action vasodilatatrice fémorale par voie I.V.
[13] = 5 mg/kg I.D., first administration
[14] = 5 mg/kg I.D., second administration
[15] = dose supplémentaire de 5 mg/kg I.D., 2 heures after LL 1656
[16] = 6 mg/kg I.D., after two administrations of CRL 41 080

COc1cc(OC)c(C(=O)CCCN2CCCCCC2)c(OC)c1 [CRL 41080, chlorhydratede (2,4,6-triméthoxyphényl)-(3-hexaméthylèneiminopropyl)-cétone]
débit fémoral [1, 10]: le débit fémoral augmente pendant la durée de la perfusion dès 1 mg/kg
pression artérielle, fréquence cardiaque [1, 10]: ne modifie pas la pression artérielle ni la fréquence cardiaque
LD50 [2]: 96 ± 3 mg/kg
résultats des essais cliniques chez l'homme [3]: bons résultats
Variation 0,25 h après administration P.A. systolique ([4]; 1 mg/kg I.V., 0,25 h après administration): 0
Variation 0,25 h après administration P.A. moyenne ([4]; 2 mg/kg I.V., 0,25 h après administration): 0
minimal effective dose [5, 11]: 5 mg/kg
minimal effective dose [5, 12]: 1 mg/kg
autres paramètres mesurés [6, 13]: ne sont pas modifiés
time at which the effect on débit fémoral has disappeared [6, 13]: 120 min
time at which the effect on débit fémoral has lost half of its intensity [6, 13]: 60 min
time of maximal effect on débit fémoral [6, 13]: 30 min
débit fémoral ([6]; 5 mg/kg I.D., first administration, trois chiens): augmente le débit fémoral
débit vertébral ([6]; 5 mg/kg I.D., repeated): ne diminue pas le débit vertébral
persistence of the effect on débit fémoral [6, 14]: encore présent à 120 min
time of maximal effect on débit fémoral [6, 14]: 30 min
débit fémoral ([6]; 5 mg/kg I.D., second administration (90 min after the first)): effet plus intense sur le débit fémoral
débit fémoral [6, 15]: n'augmente pas davantage le débit fémoral
pression artérielle, fréquence cardiaque [6, 15]: entraîne une hypotension et une bradycardie
propriétés antispasmodiques [7]: ne présente pas les propriétés antispasmodiques
débit vertébral ([8]; doses successives 0,5 - 10 mg/kg): il semble que le débit vertébral soit diminué, mais cet effet n'est pas statistiquement significatif
débit fémoral ([8]; doses successives 0,5 - 10 mg/kg, quatre chiens): augmente nettement le débit fémoral à partir de la dose de 5 mg/kg
durée de l'effet sur le débit fémoral ([8]; à partir de 5 mg/kg): plus d'une heure
solubilité dans l'eau [9]: soluble dans l'eau

COc1cc(OC)c(C(=O)CCCN2CCCCC2)c(OC)c1 [LL 1647, chlorhydratede (2,4,6-triméthoxyphényl)-(3-pipéridi-nopropyl)-cétone]
LD50 [2]: 68 ± 4 mg/kg
minimal effective dose [5, 12]: 5 mg/kg

COc1cc(OC)c(C(=O)CCCN2CCCC2)c(OC)c1 [LL 1656, chlorhydratede (2,4,6-triméthoxyphényl)-(3-pyrrolidinopropyl)-cétone, reference compound]
débit fémoral ([1]; perfusion de 6 mg/kg I.V. en fin d'essai, comparison with 1 mg/kg of CRL 41 080): augmente moins le débit fémoral que 1 mg/kg de CRL 41 080
LD50 [2]: 60 ± 2.2 mg/kg
Variation 0,25 h après administration Fréquence cardiaque ([4]; 6 mg/kg I.V., 0,25 h après administration): 0
minimal effective dose [5, 11]: 6 mg/kg
minimal effective dose [5, 12]: 5 mg/kg
débit fémoral [6, 16]: augmentation de débit fémoral d'intensité moyenne
time of maximal effect on débit fémoral [6, 16]: 120 min

— EP0110748A1, “Derivatives of phenyl-(3-aminopropyl) ketone, their therapeutical use and process for their preparation” (LABORATOIRE L. LAFON Société anonyme dite:, priority 1982, dated 1984)
